Molecules are shown by their SMILES. Where a name gives a salt, the structure may show the parent alone.

One may read the Ki as the equilibrium dissociation constant of an inhibitor or competing ligand from its target. A higher Ki goes with a looser hold on the target.

One assay deals with DBA/2 mice. Kind of assay: Audiogenic convulsion inhibitory activity in DBA/2 mice. The assay is classed as in vivo. The settings on record: Mus musculus, ip, 0.25 h, intraperitoneal, given 15 minutes before sound stimulation, read-out: dose at which audiogenic convulsions were inhibited. Here is the method:
Determination of Audiogenic Convulsion Inhibitory Activity in DBA/2 Mice
Ten male mice, 21-28 days old, were placed in a soundproof box and loaded with a sound stimulus of 12 KHz and 120 dB for 1 minute or until the mice developed tonic convulsions.
The test compound was suspended in 0.5% methylcellulose solution or dissolved in physiological saline and administered intraperitoneally 45 or 15 minutes before sound stimulation.
The effect of the test compound was evaluated according to the onset of convulsion and the minimum effective dose (MED) was determined.

Assay [1] relates to NMDA-induced neuropathy, animal models of epilepsy or brain ischemia. The conditions noted are these: reported in the literature; cited from earlier work.
For assay [2], the system named is nerve cells in the hippocampus CA1. Kind of assay: Neuron-protective action in the hippocampus, gerbil model of ischemia. It is filed as in vivo. The conditions noted are these: administered 60, 70 and 85 minutes after 5-minute ischemia (regimen 2, 30 mg/kg/dose i.p.). Here is the method:
Neuron-Protective Action in the Hippocampus
The protective action on nerve cell necrosis due to cerebral ischemia was tested using a gerbil model of ischemia constructed by occlusion of the bilateral common carotid arteries.
The bilateral common carotid arteries of the gerbil were occluded for 5 minutes under halothane anesthesia with the animal kept warm to avoid hypothermia and, then, the animal was allowed to recover from anesthesia. After 4 days, the brain was isolated and sections were prepared for histological examination of the degree of neuronal damage in the hippocampus CA1.
The test compound, either suspended in 0.5% methylcellulose solution or dissolved in physiological saline, was administered intraperitoneally. Two dosage regimens were employed. In regimen 1, 30 mg/kg/dose was administered 45 and 15 minutes before ischemia and 5 minutes and 1, 2, 3, 6 and 24 hours after obtaining re-patency. In regimen 2, 30 mg/kg/dose was administered 60, 70 and 85 minutes after obtaining re-patency.
Histopathological examination was performed using a light microscope. The degree of nerve cell impairment in the hippocampus CA1 area was rated on a 4-point scale of no lesion (score 0), slight necrosis (score 1), moderate necrosis (score 2) and complete necrosis (score 3).

The test system of a further assay is AMPA receptor. Kind of assay: [3H]-AMPA binding inhibitory activity. The settings on record: rat cerebral membrane. Here is the method:
Determination of [^3 H]-AMPA Binding Activity
A mixture (0.5 ml) of about 45 nM [^3 H]-AMPA (2-amino-3-(3-hydroxy-5-methyl-4-isoxazole)propionic acid), about […] of rat cerebral membrane specimen and the test compound was allowed to react on ice-water for 45 minutes. The amount of [^3 H]-AMPA bound to quisqualic acid receptors was determined by the filtration method. Of the total amount of binding, the portion substituted for by 10 μM quisqualic acid was regarded as specific binding. The test compound was evaluated by determining the percentage inhibition of the specific binding.

Assay [3] deals with animal model of brain ischemia. The conditions noted are these: reported in the literature; cited from earlier work.

Turning to `O=c1[nH]c2cc(-n3ccnc3)c(C(F)(F)F)cc2[nH]c1=O` [Example 9, 6-(1-imidazolyl)-7-trifluoromethylquinoxaline-2,3-(1H,4H)-dione hydrochloride hydrate], the minimal effective dose in the assay on DBA/2 mice turned out to be 3 mg/kg. Take `NC(CCCP(=O)(O)O)C(=O)O` (stereo not shown) [2-amino-5-phosphonovalerianic acid]: the “efficacy in NMDA-induced neuropathy and in animal models of epilepsy or brain ischemia” value in assay [1] was “effective”. As for `O=c1[nH]c2cc(-n3ccnc3)c([N+](=O)[O-])cc2[nH]c1=O` [Example 15, 6-imidazolyl-7-nitroquinoxaline-2,3-(1H,4H)-dione], in the assay on DBA/2 mice, the minimal effective dose was 3 mg/kg. In addition, in assay [2], the “lesion score (hippocampus CA1, scale 0-3)” value is recorded as 1.2 and the neuron protecting activity stood at 60%. In the case of `O=c1[nH]c2cc([N+](=O)[O-])c(-n3ccnc3)cc2n(O)c1=O` [Example 8, 1-hydroxy-7-imidazolyl-6-nitroquinoxaline-2,3-(1H,4H)-dione], the “AMPA receptor binding inhibitory activity” value in the assay with AMPA receptor (at 1 μM) was found to be 96%. On AMPA receptor, this compound displayed a Ki of 21 nM. As for `NC(CCCCCP(=O)(O)O)C(=O)O` (stereo not shown) [2-amino-7-phosphonoheptanoic acid], the “efficacy in NMDA-induced neuropathy and in animal models of epilepsy or brain ischemia” value in assay [1] is “effective”.

As to `NS(=O)(=O)c1cccc2c1c([N+](=O)[O-])cc1[nH]c(=O)c(=O)[nH]c12` [NBQX], in assay [3], the “efficacy in an animal model of brain ischemia” value is reported as “effective”. In the case of `NC1CCN(O)C1=O` (stereo not shown) [HA-966], the “efficacy in an animal model of brain ischemia” value in assay [3] was “effective”.

Values taken from patent US5283244A, “Fused pyrazine derivatives” (Yamanouchi Pharmaceutical Co., Ltd., priority 1990, dated 1994).
